Here are results for 15 compounds from patent US20090143279A1 (priority 2007, published 2009).

Like-named read-outs stand apart in the source and are kept apart here.

The test system of one assay is mtOXPHOS transcripts. The format is cell-based, mouse.
Assay [1] relates to mitochondrial membrane potential. It is filed as cell-based, mouse.
The test system of the next assay is OXPHOS gene expression. The format is cell-based, mouse.
Assay [2] concerns cellular dehydrogenase activity.
Another assay concerns reactive oxygen species. It is filed as cell-based, mouse.
A further assay has as its system cytochrome c. It is filed as cell-based, mouse.
Another assay deals with nuOXPHOS transcripts. The format is cell-based, mouse.
[3] abbreviates: 10.86 μM, composite Z-score vs DMSO.
Setting [4] is: 20 μM, composite Z-score vs DMSO.
Setting [5] is: composite Z-score vs DMSO, Conc 20 μM.
Where [6] appears, read: composite Z-score vs mock-treated (DMSO) wells, Conc 20 μM.
The mark [7] stands for this setting: normalized composite Z-score vs mock-treated (DMSO) wells, Conc 20 μM.
[8] abbreviates: composite Z-score vs DMSO wells, Conc 20 μM.
[9] abbreviates: Conc 20 μM, normalized score vs mock-treated (DMSO) wells.

As for `CC(C)[N+](C)(CCOC(=O)C1c2ccccc2Oc2ccccc21)C(C)C` [propantheline], the values for the Viability in the assay on C2C12 myotubes (setting [3]) and in the assay with C2C12 myotubes (setting [4]) were −0.361 and 0.142, respectively. The mitoOX in the assay on mtOXPHOS transcripts (setting [3]) is given as −1.055; in the assay on mtOXPHOS transcripts (setting [4]) it was 0.783. Also, the ΔΨm is −0.893 in assay [1] (setting [3]) and −0.082 in assay [1] (setting [4]). For the same compound, the GE-HTS with OXPHOS gene expression (setting [3]) is reported as −0.301; with OXPHOS gene expression (setting [4]), 0.458. Also, the MTT in assay [2] (setting [3]) is recorded as −1.670; in assay [2] (setting [4]), −1.026. The ROS in the assay with reactive oxygen species (setting [3]) was determined as 0.589; in the assay with reactive oxygen species (setting [4]), 2.062. Besides, the values for the cyt c with cytochrome c (setting [3]) and with cytochrome c (setting [4]) were −0.615 and 0.379, respectively. Further, the nucOX in the assay on nuOXPHOS transcripts (setting [3]) is 0.104; in the assay on nuOXPHOS transcripts (setting [4]), 0.254.

As to `CC[C@@H](C)C(=O)O[C@H]1[C@H](O)[C@H]2[C@@H](CN3C[C@@H](C)CC[C@H]3[C@@]2(C)O)[C@@H]2C[C@]34O[C@]5(O)[C@@H](OC(=O)[C@@](C)(O)CC)CC[C@@]3(C)[C@@H]5[C@@H](OC(C)=O)[C@@H](OC(C)=O)[C@H]4[C@@]21O` [protoveratrine A], the Viability with C2C12 myotubes (setting [5]) is 0.243. Besides, the mitoOX in the assay with mtOXPHOS transcripts (setting [5]) is listed as −1.108. Besides, the ΔΨm in assay [1] (setting [5]) is recorded as 0.394. Further, the GE-HTS with OXPHOS gene expression (setting [5]) is on record as −1.106. In assay [2] (setting [5]), this compound gave an MTT of −0.100. In the assay on reactive oxygen species (setting [5]), this compound showed an ROS of −0.267. This compound also showed a cyt c in the assay with cytochrome c (setting [5]) of 1.155. This compound registered a nucOX in the assay on nuOXPHOS transcripts (setting [5]) of −0.978.

As to `CC1=CCc2c(cc3oc(C)cc(=O)c3c2O)OC1` [ptaeroxylin], the Viability with C2C12 myotubes (setting [6]) was −0.025. The mitoOX in the assay on mtOXPHOS transcripts (setting [6]) is −0.641. For the same compound, the ΔΨm in assay [1] (setting [6]) was 0.238. The same compound came in with a GE-HTS in the assay with OXPHOS gene expression (setting [6]) of −0.853. The MTT in assay [2] (setting [6]) came to 0.160. This compound also displayed an ROS with reactive oxygen species (setting [6]) of 0.259. Besides, in the assay on cytochrome c (setting [6]), the cyt c was found to be 0.599. The compound also registered a nucOX in the assay on nuOXPHOS transcripts (setting [6]) of −0.907.

Compound `CC1(O)/C=C\C=C(\CO)C2CC(C)(C)C2(O)CC1` (stereo not drawn) [punctaporin B] returned a Viability in the assay on C2C12 myotubes (setting [7]) of 0.554. Further, the mitoOX with mtOXPHOS transcripts (setting [7]) is recorded as −0.555. Moreover, the ΔΨm in assay [1] (setting [7]) is given as −0.174. For the same compound, in the assay with OXPHOS gene expression (setting [7]), the GE-HTS is recorded as −0.242. In addition, in assay [2] (setting [7]), the MTT is given as −0.596. Also, the ROS in the assay with reactive oxygen species (setting [7]) amounted to 0.731. In addition, the cyt c with cytochrome c (setting [7]) is on record as 0.175. In the assay with nuOXPHOS transcripts (setting [7]), this compound showed a nucOX of −0.049.

`CN1CCCN=C1/C=C/c1cccs1` [pyrantel pamoate]: the Viability in the assay with C2C12 myotubes is −1.934. The compound also yielded a mitoOX in the assay on mtOXPHOS transcripts of −0.327. The compound also gave a ΔΨm in assay [1] of −2.829. In the assay on OXPHOS gene expression, this compound showed a GE-HTS of −0.468. Moreover, the MTT in assay [2] is given as −0.189. This compound also displayed an ROS in the assay on reactive oxygen species of 0.592. Besides, the cyt c in the assay on cytochrome c was found to be 0.640. Also, the nucOX in the assay with nuOXPHOS transcripts is reported as −0.500.

As to `CCc1nc(N)nc(N)c1-c1ccc(Cl)cc1` [pyrimethamine], the Viability in the assay with C2C12 myotubes (setting [8]) is given as 0.994. In the assay on mtOXPHOS transcripts (setting [8]), this compound showed a mitoOX of −0.825. The same compound displayed a ΔΨm in assay [1] (setting [8]) of −0.696. In the assay on OXPHOS gene expression (setting [8]), this compound returned a GE-HTS of −0.657. For the same compound, the MTT in assay [2] (setting [8]) is −1.810. The compound further showed an ROS in the assay on reactive oxygen species (setting [8]) of 0.329. For the same compound, the values for the cyt c in the assay with cytochrome c and in the assay on cytochrome c (setting [8]) were 1.048 and −0.306, respectively. In addition, in the assay on nuOXPHOS transcripts (setting [8]), the nucOX was −0.526.

On to `[O-][n+]1ccccc1[S-].[O-][n+]1ccccc1[S-].[Zn+2]` [pyrithione zinc], for which the “Viability (composite Z-score vs DMSO)” value in the assay with C2C12 myotubes is on record as −5.339. The “mitoOX (composite Z-score vs DMSO)” value in the assay on mtOXPHOS transcripts is recorded as −0.770. In assay [1], the “ΔΨm (composite Z-score vs DMSO)” value was −3.529. In addition, the “GE-HTS (composite Z-score vs DMSO)” value in the assay on OXPHOS gene expression was −3.250. In assay [2], the “MTT (composite Z-score vs DMSO)” value is −6.284. Also, in the assay on reactive oxygen species, the “ROS (composite Z-score vs DMSO)” value was −2.405. Besides, the “cyt c (composite Z-score vs DMSO)” value with cytochrome c was −4.773. Besides, the “nucOX (composite Z-score vs DMSO)” value with nuOXPHOS transcripts is reported as −4.140.

Consider `O=C(O)c1cccc(O)c1O` [pyrocatechuic acid], for which, in the assay with C2C12 myotubes (setting [5]), the Viability is −1.076. The compound further had a mitoOX in the assay with mtOXPHOS transcripts (setting [5]) of −0.367. The compound also showed a ΔΨm in assay [1] (setting [5]) of −1.204. The GE-HTS in the assay on OXPHOS gene expression (setting [5]) is recorded as −0.386. The compound also had an MTT in assay [2] (setting [5]) of −1.800. Further, the ROS in the assay on reactive oxygen species (setting [5]) was 1.147. In addition, in the assay with cytochrome c (setting [5]), the cyt c is on record as −0.018. For the same compound, in the assay with nuOXPHOS transcripts (setting [5]), the nucOX is −0.324.

In the assay on C2C12 myotubes (setting [4]), `COC1=C[C@@H](C)[C@@H]2C[C@H]3OC(=O)C[C@H]4C(C)=C(OC)C(=O)[C@H]([C@@]2(C)C1=O)[C@@]34C` [quassin, reference compound] displayed a Viability of −0.688. In the assay with mtOXPHOS transcripts (setting [4]), this compound came in with a mitoOX of −0.168. The same compound came in with a ΔΨm in assay [1] (setting [4]) of 0.033. The same compound returned a GE-HTS in the assay on OXPHOS gene expression (setting [4]) of 0.095. Besides, the MTT in assay [2] (setting [4]) is given as −0.400. In the assay on reactive oxygen species (setting [4]), this compound displayed an ROS of 0.925. The cyt c in the assay with cytochrome c (setting [4]) is given as −0.233. The nucOX with nuOXPHOS transcripts (setting [4]) amounted to 0.205.

As for `NC(=O)C1(O)C[C@@H](O)C(O)[C@H](O)C1` (stereo partly drawn) [quinamide], in the assay with C2C12 myotubes (setting [9]), the “Viability (composite Z-score)” value was −0.397. In the assay on mtOXPHOS transcripts (setting [9]), the “mitoOX (composite Z-score)” value is 0.735. In addition, the “ΔΨm (composite Z-score)” value in assay [1] (setting [9]) is −0.518. The “GE-HTS (composite Z-score)” value with OXPHOS gene expression (setting [9]) is −0.139. Moreover, in assay [2] (setting [9]), the “MTT (composite Z-score)” value is recorded as −1.034. For the same compound, the “ROS (composite Z-score)” value in the assay on reactive oxygen species (setting [9]) is 0.405. For the same compound, the “cyt c (composite Z-score)” value in the assay with cytochrome c (setting [9]) turned out to be 0.359. Also, the “nucOX (composite Z-score)” value in the assay with nuOXPHOS transcripts (setting [9]) was −0.529.

`CCOC(=O)[C@H](CCc1ccccc1)N[C@@H](C)C(=O)N1Cc2ccccc2C[C@H]1C(=O)O` [quinapril] gave a Viability in the assay with C2C12 myotubes (setting [4]) of 0.034. Besides, in the assay with mtOXPHOS transcripts (setting [4]), the mitoOX was −0.130. In addition, the ΔΨm in assay [1] (setting [4]) was −0.276. For the same compound, the GE-HTS with OXPHOS gene expression (setting [4]) is on record as −0.132. In assay [2] (setting [4]), this compound had an MTT of −1.111. Moreover, the ROS in the assay with reactive oxygen species (setting [4]) came to 1.175. In addition, in the assay with cytochrome c (setting [4]), the cyt c is recorded as 0.237. Moreover, the nucOX in the assay on nuOXPHOS transcripts (setting [4]) is listed as −0.127.

Take `C=C[C@H]1C[N@@]2CC[C@H]1C[C@@H]2[C@@H](O)c1ccnc2ccc(OC)cc12` [quinidine]: in the assay on C2C12 myotubes (setting [5]), the Viability is reported as 0.916. For the same compound, the mitoOX with mtOXPHOS transcripts (setting [5]) is 0.501. Further, in assay [1] (setting [5]), the ΔΨm is given as 1.187. The compound also showed a GE-HTS with OXPHOS gene expression (setting [5]) of 0.849. This compound also returned an MTT in assay [2] (setting [5]) of −0.233. In the assay with reactive oxygen species (setting [5]), this compound gave an ROS of 1.326. Besides, the cyt c with cytochrome c (setting [5]) is reported as 1.286. The nucOX in the assay with nuOXPHOS transcripts (setting [5]) worked out at 0.956.

`C=C[C@H]1CN2CC[C@H]1C[C@H]2[C@H](OC(=O)OCC)c1ccnc2ccc(OC)cc12` [quinine ethyl carbonate] had a Viability in the assay on C2C12 myotubes (setting [4]) of −0.167. Also, the mitoOX in the assay with mtOXPHOS transcripts (setting [4]) is given as −1.297. Further, the ΔΨm in assay [1] (setting [4]) is reported as −0.661. The GE-HTS in the assay with OXPHOS gene expression (setting [4]) is listed as −1.190. For the same compound, the MTT in assay [2] (setting [4]) is given as −0.071. The compound further had an ROS with reactive oxygen species (setting [4]) of 0.401. Further, the cyt c in the assay with cytochrome c (setting [4]) was determined as 0.822. Also, the nucOX in the assay on nuOXPHOS transcripts (setting [4]) is reported as −1.003.

Compound `O=C(O)c1cccnc1C(=O)O` [quinolinic acid] had a Viability in the assay on C2C12 myotubes (setting [4]) of −0.516. Besides, in the assay with mtOXPHOS transcripts (setting [4]), the mitoOX was −0.519. Also, the ΔΨm in assay [1] (setting [4]) is on record as −1.023. The compound also yielded a GE-HTS in the assay with OXPHOS gene expression (setting [4]) of −0.586. In addition, the MTT in assay [2] (setting [4]) was −1.118. The compound also showed an ROS with reactive oxygen species (setting [4]) of 0.849. Further, in the assay on cytochrome c (setting [4]), the cyt c is −0.222. The same compound showed a nucOX in the assay on nuOXPHOS transcripts (setting [4]) of −0.575.

`COc1ccc(/C=C/c2cc(O)cc(O)c2)cc1` [resveratrol 4′-methyl ether]: the Viability in the assay on C2C12 myotubes (setting [6]) was −0.225. This compound had a mitoOX with mtOXPHOS transcripts (setting [6]) of 0.065. The compound also had a ΔΨm in assay [1] (setting [6]) of −0.389. Moreover, the GE-HTS with OXPHOS gene expression (setting [6]) is recorded as −0.005. This compound also had an MTT in assay [2] (setting [6]) of −1.056. In the assay with reactive oxygen species (setting [6]), this compound yielded an ROS of 0.225. This compound registered a cyt c in the assay on cytochrome c (setting [6]) of 0.142. In the assay on nuOXPHOS transcripts (setting [6]), this compound gave a nucOX of −0.063.
